pEC50: −log10 of the molar value.
What was measured:
human CaSR = molecular target: T1, human CaSR (Homo sapiens, UniProt P41180); assay: Functional whole cell assay (modulation of human CaSR), IP1 accumulation in CHO-K1 cells; assay type: cell-based; conditions: CHO-K1 cells stably expressing human CaSR, final Ca2+ 1.9 mM, IP1 readout; concentration giving 50% of maximum agonistic response
T1 construct: The ORF coding for the human CaSR (genebank: NM_000388)
T1 sequence (P41180 20-1078): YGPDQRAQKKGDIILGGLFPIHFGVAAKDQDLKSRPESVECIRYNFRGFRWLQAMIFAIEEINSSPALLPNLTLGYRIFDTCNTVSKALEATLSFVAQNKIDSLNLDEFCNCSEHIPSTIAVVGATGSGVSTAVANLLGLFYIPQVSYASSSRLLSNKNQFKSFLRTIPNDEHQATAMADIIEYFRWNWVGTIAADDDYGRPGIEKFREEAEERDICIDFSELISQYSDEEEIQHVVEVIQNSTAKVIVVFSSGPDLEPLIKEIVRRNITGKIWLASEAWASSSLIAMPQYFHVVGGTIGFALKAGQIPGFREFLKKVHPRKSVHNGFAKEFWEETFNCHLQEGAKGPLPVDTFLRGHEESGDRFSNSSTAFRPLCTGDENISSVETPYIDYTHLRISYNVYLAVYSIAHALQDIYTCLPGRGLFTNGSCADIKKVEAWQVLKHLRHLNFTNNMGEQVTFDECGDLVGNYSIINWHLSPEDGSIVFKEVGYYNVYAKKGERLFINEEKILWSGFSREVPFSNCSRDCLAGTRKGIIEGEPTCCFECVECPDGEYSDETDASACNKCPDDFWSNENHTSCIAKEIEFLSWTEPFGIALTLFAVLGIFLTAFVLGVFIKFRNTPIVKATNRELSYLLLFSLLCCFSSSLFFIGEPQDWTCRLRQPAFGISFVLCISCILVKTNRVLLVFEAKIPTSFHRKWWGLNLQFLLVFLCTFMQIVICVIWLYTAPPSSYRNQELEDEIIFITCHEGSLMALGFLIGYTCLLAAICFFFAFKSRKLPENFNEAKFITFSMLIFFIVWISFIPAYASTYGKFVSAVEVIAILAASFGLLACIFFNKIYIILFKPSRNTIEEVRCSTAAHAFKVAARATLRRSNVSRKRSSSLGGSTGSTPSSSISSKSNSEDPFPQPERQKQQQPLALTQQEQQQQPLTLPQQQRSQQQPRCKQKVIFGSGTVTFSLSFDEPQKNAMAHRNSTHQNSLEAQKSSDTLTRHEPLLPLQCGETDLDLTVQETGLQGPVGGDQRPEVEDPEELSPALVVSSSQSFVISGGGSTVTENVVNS
Description: The assay investigates a compound's functional ability to act as a biological positive modulator on the human CaSR. Activation of the receptor expressed on CHO-K1 cells is detected through the G alpha q pathway, the activation of phospholipase C and the accumulation of intracellular inositol phosphate (IP) as described earlier [Sandrine Ferry, Bruno Chatel, Robert H. Dodd, Christine Lair, Danielle Gully, Jean-Pierre Maffrand, and Martial Ruat. Effects of Divalent Cations and of a Calcimimetic on Adrenocorticotropic Hormone Release in Pituitary Tumor Cells. Biochemical and biophysical research Communications 238, 866-873 (1997)]. The human CaSR is stably expressed on a CHO-K1 cell clone, stimulated with a basal level of calcium and challenged with the tested compound. The level of IP1 is determined using the IP-One Terbium htrf kit (Cisbio, France). CHO-K1 cells not transfected with the CaSR fail to elicit an IP1 response upon calcium and/or compound stimulation.
The ORF coding for the human CaSR (genebank: NM_000388) was acquired from Invitrogen Corp, USA and subsequently cloned into the mammalian expression vector pCDA3.1.
CHO-K1 cells were transfected using Lipofectamine according to manufacturer's protocol (400.000 cells/well were seeded in a 6-well plate and transfected after 24 hours using 2 μg DNA and 5 μl lipofectamine). After another 24 hours the cells were detached, seeded and subjected to 1 mg/ml of G-418. Following 7 days growth single clones were picked, the CaSR expression evaluated using the 5C10 antibody against CaSR, the clones with the highest expression were selected and tested for functional response. The preferred clone was cultured according to standard procedures described in ATCC (American Type Culture Collection) protocols for CHO-K1 with the addition of 500 μg/ml G-418.
On the assay day, cells were thawed, harvested and resuspended to 4*10^6 cells/ml in stimulation buffer (containing: Hepes 10 mM, MgCl2 0.5 mM, KCl 4.2 mM, NaCl 146 mM, glucose 5.5 mM, LiCl 50 mM, BSA 0.5% at pH 7.4). Ten μl cell solution was pipetted into wells of a white 384-well plate (Perkin Elmer Optiplate) containing 2 μl compound diluted in assay buffer (containing: Hepes 10 mM, MgCl2 0.5 mM, KCl 4.2 mM, NaCl 146 mM, glucose 5.5 mM, LiCl 50 mM, CaCl2 11.4 mM at pH 7.4), resulting in a final Ca^2+ concentration of 1.9 mM. After compound stimulation for 1 hour at 37° C. and 15 min at room temperature, 10 ul of IP-One assay detection reagent (prepared as described by the IP-One assay kit manufacturer) was added and the plate was incubated for another 1 hour at room temperature. Finally the plate was read using a Perkin Elmer EnVision, according to the protocol supplied by the IP-One assay kit manufacturer. The FRET ratio was calculated by dividing the 665 nm emission signal with that of the 615 nm.
The molar concentration of a compound that produces 50% of the maximum agonistic response (the […] value) is calculated according to the equation “General sigmoidal curve with Hill slope, a to d” (Equation 1). This model describes a sigmoidal curve with an adjustable baseline. The equation can be used to fit curves where response is either increasing or decreasing with respect to the independent variable, X.
y=(a−d)/(1+(x/c)̂b)+d Equation 1.
x=concentration of tested compound y=response (%) a=min response as compound concentration approaches 0 d=max response as concentration of tested compound is increasing c=IC50 for the curve b=Hill coefficient or curve slope

[1] = Clearance in human liver microsomes; assay type: in vitro ADME; conditions: hepatic extraction ratio; 0.5 μM compound, 0.5 mg/mL microsomes, 1 mM NADPH, 30 min
Method: Test compound concentration is 0.5 μM, microsome concentration is 0.5 mg/mL and NADPH concentration is 1 mM in the incubation. The described method is performed by the liquid handling system Tecan RSP and is based on a 96-well format.
Control incubations with test compound without NADPH and test compound without microsomes are conducted to investigate non-CYP mediated metabolism and stability in phosphate buffer at 37° C., respectively.
The human liver microsomal suspension in phosphate buffer is mixed with NADPH. The mixture is pre-heated (7 min) to 37° C. Test compound is added, and the mixture is incubated for 30 minutes. Incubations are run in duplicate. Samples are withdrawn at predetermined stop times and mixed with methanol containing internal standard (IS) to terminate all enzyme activity and precipitate proteins. A control without NADPH (to detect problems such as nonspecific protein binding, heat instability or non-CYP mediated metabolism) and a control without microsomes (for assessing compound stability in the absence of any active enzymes) are tested.
The percentage of organic solvent in the incubations is less than 1%. Careful inspections of reagents are performed prior to the start of any experiment to ensure all reagents are in solution.
The 96-well plates are centrifuged. Test compound depletion, using a compound specific LC/MS/MS method, is determined.
The logarithm of the peak area ratios of test compound to internal standard (IS) versus incubation time is plotted in a graph.
The rate constant (k) (min^−1) of test compound depletion is calculated from the linear part of the curve and the half-time (t1/2) in minutes can be calculated from the rate constant (Eq. 2).
Intrinsic clearance (Clint) (mL/min/mg protein) is calculated from: […]
where c is the microsomal protein concentration in mg/mL.
Intrinsic clearance is the maximum ability of the liver to extract a drug in the absence of blood flow restrictions.
Conversion to apparent clearance (Clapp) (mL/min/kg) is done by Eq. 4:
Clapp=Clint×a×b/d (Eq. 4)
where a, b and d are the scaling factors for normalizing Clint to human body weight.
The following human scaling factors are used:
a: 45 (microsomal protein/liver weight (mg/g)) b: 1500 (liver weight (g)) d: 70 (body weight (kg))
Hepatic clearance (Clh) (mL/min/kg) based on the well-stirred model is described as followed:
Clh=(Clapp·Q)/(Clapp+Q) (Eq. 5)
where Q is the liver blood flow in mL/min/kg (20 in humans).
Dividing hepatic clearance with liver blood flow, the hepatic extraction ratio (%) can be calculated:
Apparent clearance below approximately 10 mL/min/kg human body weight (corresponding to extraction ratio of approx. 33%) is considered as low clearance (high metabolic stability). Apparent intrinsic clearance above approximately 60 mL/min/kg human body weight (corresponding to extraction ratio of approx. 75%) is considered as high clearance (low metabolic stability).

pEC50 (human CaSR) | Clearance (% Eh) in human liver microsomes [1] | Compound
6.00 to 6.70 | A (A: Eh < 33%) | C[C@@H](N[C@H]1CC[C@@H](c2ccc(NCCS(N)(=O)=O)nc2)C1)c1cccc(Cl)c1 [Compound 121, 2-[[5-[(1R,3S)-3-[[(1R)-1-(3-Chlorophenyl)ethyl]amino]cyclopentyl]-2-pyridyl]amino]ethanesulfonamide]
6.00 to 6.70 | A (A: Eh < 33%) | C[C@@H](N[C@H]1CC[C@@H](c2ccc(NCCS(N)(=O)=O)nc2)C1)c1cccc2c1OCO2 [Compound 114, 2-[[5-[(1R,3S)-3-[[(1R)-1-(1,3-Benzodioxol-4-yl)ethyl]amino]cyclopentyl]-2-pyridyl]amino]ethanesulfonamide]
6.00 to 6.70 | A (A: Eh < 33%) | COc1cc([C@@H](C)N[C@H]2CC[C@@H](c3cnc(NCCNS(C)(=O)=O)nc3)C2)ccc1F [Compound 123, N-[2-[[5-[(1R,3S)-3-[[(1R)-1-(4-Fluoro-3-methoxy-phenyl)ethyl]amino]cyclopentyl]pyrimidin-2-yl]amino]ethyl]methanesulfonamide]
6.00 to 6.70 | A (A: Eh < 33%) | CCOc1cccc([C@@H](C)N[C@H]2CC[C@@H](c3ccc(N4CCNC(=O)C4)nc3)C2)c1 [Compound 117, 4-[5-[(1R,3S)-3-[[(1R)-1-(3-Ethoxyphenyl)ethyl]amino]cyclopentyl]-2-pyridyl]piperazin-2-one]

Reference: patent publication US20130267516A1, “SUBSTITUTED CYCLOPENTYL-AZINES AS CASR-ACTIVE COMPOUNDS” (LEO PHARMA A/S, priority 2010, published 2013)
